# Measurements taken from ChEMBL document CHEMBL3421596, “A facile synthesis and microtubule-destabilizing properties of 4-(1H-benzo[d]imidazol-2-yl)-furazan-3-amines” (Eur J Med Chem, 2015).
# Activity calls are given as the source filed them. No cut-off for these calls is given here.
# Assays:
# [1] = Cytotoxicity against human HCT116 cells; format: functional; settings: HCT-116
# [2] = Cytotoxicity against human HCT15 cells; format: functional; settings: HCT-15
# [3] = system: HT-29; assay: Cytotoxicity against human HT-29 cells; format: functional
# [4] = system: KM12; assay: Cytotoxicity against human KM12 cells; format: functional
# [5] = system: SW-620; assay: Cytotoxicity against human SW620 cells; format: functional
# [6] = system: SF-268; assay: Cytotoxicity against human SF268 cells; format: functional
# [7] = system: SF-539; assay: Cytotoxicity against human SF539 cells; format: functional; settings: read-out: pGI50 (converted)
# [8] = system: SNB-19; assay: Cytotoxicity against human SNB19 cells; format: functional
# [9] = system: U-251; assay: Cytotoxicity against human U251 cells; format: functional
# [10] = system: LOX IMVI; assay: Cytotoxicity against human LOXIMVI cells; format: functional
# [11] = system: Malme-3M; assay: Cytotoxicity against human MALME-3M cells; format: functional
# [12] = system: M14; assay: Cytotoxicity against human M14 cells; format: functional
# [13] = system: MDA-MB-435; assay: Cytotoxicity against human MDA-MB-435 cells; format: functional; settings: read-out: pGI50 (converted)
# [14] = system: SK-MEL-2; assay: Cytotoxicity against human SK-MEL-2 cells; format: functional
# [15] = system: SK-MEL-28; assay: Cytotoxicity against human SK-MEL-28 cells; format: functional
# [16] = system: SK-MEL-5; assay: Cytotoxicity against human SK-MEL-5 cells; format: functional
# [17] = Cytotoxicity against human UACC257 cells; format: functional; settings: UACC-257
# [18] = Cytotoxicity against human UACC62 cells; format: functional; settings: UACC-62
# [19] = system: IGROV-1; assay: Cytotoxicity against human IGROV1 cells; format: functional
# [20] = Cytotoxicity against human OVCAR3 cells; format: functional; settings: OVCAR-3, read-out: pGI50 (converted)
# [21] = Cytotoxicity against human OVCAR4 cells; format: functional; settings: OVCAR-4
# [22] = Cytotoxicity against human OVCAR5 cells; format: functional; settings: OVCAR-5
# [23] = Cytotoxicity against human OVCAR8 cells; format: functional; settings: OVCAR-8, read-out: pGI50 (converted)
# [24] = Cytotoxicity against human NCI-ADR-RES cells; format: functional; settings: read-out: pGI50 (converted)
# [25] = Cytotoxicity against human SKOV3 cells; format: functional; settings: SK-OV-3
# [26] = system: 786-0; assay: Cytotoxicity against human 786-0 cells; format: functional
# [27] = system: A498; assay: Cytotoxicity against human A498 cells; format: functional
# [28] = system: ACHN; assay: Cytotoxicity against human ACHN cells; format: functional
# [29] = system: CAKI-1; assay: Cytotoxicity against human Caki1 cells; format: functional
# [30] = system: RXF 393; assay: Cytotoxicity against human RXF393 cells; format: functional; settings: read-out: pGI50 (converted)
# [31] = system: SN12C; assay: Cytotoxicity against human SN12C cells; format: functional
# [32] = system: TK-10; assay: Cytotoxicity against human TK10 cells; format: functional
# [33] = Cytotoxicity against human UO31 cells; format: functional; settings: UO-31
# [34] = Cytotoxicity against human PC3 cells; format: functional; settings: PC-3
# [35] = system: DU-145; assay: Cytotoxicity against human DU145 cells; format: functional
# [36] = system: MCF7; assay: Cytotoxicity against human MCF7 cells; format: functional
# [37] = system: MDA-MB-231; assay: Cytotoxicity against human MDA-MB-231 cells; format: functional
# [38] = Cytotoxicity against human Hs578T cells; format: functional; settings: Hs-578T
# [39] = system: BT-549; assay: Cytotoxicity against human BT549 cells; format: functional
# [40] = system: T47D; assay: Cytotoxicity against human T47D cells; format: functional
# [41] = system: MDA-MB-468; assay: Cytotoxicity against human MDA-MB-468 cells; format: functional
# [42] = system: SNB-75; assay: Cytotoxicity against human SNB75 cells; format: functional
# [43] = system: HOP-92; assay: Cytotoxicity against human HOP92 cells; format: functional
# [44] = system: Paracentrotus lividus; assay: Antiproliferative activity in sea urchin embryo assessed as antimitotic activity by measuring cleavage alteration exposed for 8 to 20 mins after fertilization and 45 to 55 mins before first mitotic cycle completion measured 2.5 to […] after fertilization; format: functional
# [45] = system: Paracentrotus lividus; assay: Antiproliferative activity in sea urchin embryo assessed as antimitotic activity by measuring cleavage arrest exposed for 8 to 20 mins after fertilization and 45 to 55 mins before first mitotic cycle completion measured 2.5 to […] after fertilization; format: functional
# [46] = system: Paracentrotus lividus; assay: Antiproliferative activity in sea urchin embryo assessed as destabilization of microtubule by measuring embryo spinning after 15 mins to 20 hrs; format: functional
# [47] = system: Paracentrotus lividus; assay: Antiproliferative activity in sea urchin embryo assessed as destabilization of microtubule by tuberculate eggs after 15 mins to 20 hrs; format: functional, organism-based
# [48] = Cytotoxicity against human NCI60 cells; format: functional
# [49] = system: CCRF-CEM; assay: Cytotoxicity against human CCRF-CEM cells; format: functional
# [50] = system: HL-60(TB); assay: Cytotoxicity against human HL-60(TB) cells; format: functional
# [51] = system: K562; assay: Cytotoxicity against human K562 cells; format: functional
# [52] = system: MOLT-4; assay: Cytotoxicity against human MOLT4 cells; format: functional
# [53] = system: RPMI-8226; assay: Cytotoxicity against human RPMI8226 cells; format: functional
# [54] = system: SR; assay: Cytotoxicity against human SR cells; format: functional
# [55] = system: A549; assay: Cytotoxicity against human A549 cells; format: functional
# [56] = system: HOP-62; assay: Cytotoxicity against human HOP62 cells; format: functional
# [57] = system: NCI-H226; assay: Cytotoxicity against human NCI-H226 cells; format: functional
# [58] = system: NCI-H23; assay: Cytotoxicity against human NCI-H23 cells; format: functional
# [59] = system: NCI-H322M; assay: Cytotoxicity against human NCI-H322M cells; format: functional
# [60] = system: NCI-H460; assay: Cytotoxicity against human NCI-H460 cells; format: functional
# [61] = system: NCI-H522; assay: Cytotoxicity against human NCI-H522 cells; format: functional
# [62] = system: COLO 205; assay: Cytotoxicity against human COLO205 cells; format: functional
# [63] = system: HCC 2998; assay: Cytotoxicity against human HCC2998 cells; format: functional
smiles,measurement,setting,value
COc1cccc(Cn2c(-c3nonc3N)nc3ccccc32)c1,GI50,[1],389 nM
same,GI50,[2],380 nM
same,GI50,[3],316 nM
same,GI50,[4],501 nM
same,GI50,[5],363 nM
same,GI50,[6],759 nM
same,GI50,[7],214 nM
same,GI50,[8],741 nM
same,GI50,[9],437 nM
same,GI50,[10],537 nM
same,GI50,[11],525 nM
same,GI50,[12],275 nM
same,GI50,[13],182 nM
same,GI50,[14],288 nM
same,GI50,[15],813 nM
same,GI50,[16],331 nM
same,GI50,[17],316 nM
same,GI50,[18],513 nM
same,GI50,[19],603 nM
same,GI50,[20],263 nM
same,GI50,[21],8710 nM
same,GI50,[22],550 nM
same,GI50,[23],525 nM
same,GI50,[24],316 nM
same,GI50,[25],437 nM
same,GI50,[26],437 nM
same,GI50,[27],275 nM
same,GI50,[28],550 nM
same,GI50,[29],417 nM
same,GI50,[30],275 nM
same,GI50,[31],646 nM
same,GI50,[32],724 nM
same,GI50,[33],589 nM
same,GI50,[34],447 nM
same,GI50,[35],603 nM
same,GI50,[36],398 nM
same,GI50,[37],955 nM
same,GI50,[38],339 nM
same,GI50,[39],363 nM
same,GI50,[40],501 nM
same,GI50,[41],240 nM
same,GI50,[42],295 nM
same,GI50,[43],372 nM
same,EC,[44],0.2 µM
same,EC,[45],2 µM
same,EC,[46],>5 µM
same,Activity,[47],Active
same,GI50,[48],457 nM
same,GI50,[49],339 nM
same,GI50,[50],263 nM
same,GI50,[51],347 nM
same,GI50,[52],724 nM
same,GI50,[53],363 nM
same,GI50,[54],263 nM
same,GI50,[55],617 nM
same,GI50,[56],468 nM
same,GI50,[57],525 nM
same,GI50,[58],832 nM
same,GI50,[59],871 nM
same,GI50,[60],363 nM
same,GI50,[61],229 nM
same,GI50,[62],372 nM
same,GI50,[63],1170 nM
